Test results as given in US20230167073A1 (Teijin Pharma Limited, priority 2020, published 2023).

Molecular target: T1, Human TRPC6 (Homo sapiens, UniProt Q9Y210)
T1 construct: expressed in transfected cells
T1 sequence (Q9Y210 1-931): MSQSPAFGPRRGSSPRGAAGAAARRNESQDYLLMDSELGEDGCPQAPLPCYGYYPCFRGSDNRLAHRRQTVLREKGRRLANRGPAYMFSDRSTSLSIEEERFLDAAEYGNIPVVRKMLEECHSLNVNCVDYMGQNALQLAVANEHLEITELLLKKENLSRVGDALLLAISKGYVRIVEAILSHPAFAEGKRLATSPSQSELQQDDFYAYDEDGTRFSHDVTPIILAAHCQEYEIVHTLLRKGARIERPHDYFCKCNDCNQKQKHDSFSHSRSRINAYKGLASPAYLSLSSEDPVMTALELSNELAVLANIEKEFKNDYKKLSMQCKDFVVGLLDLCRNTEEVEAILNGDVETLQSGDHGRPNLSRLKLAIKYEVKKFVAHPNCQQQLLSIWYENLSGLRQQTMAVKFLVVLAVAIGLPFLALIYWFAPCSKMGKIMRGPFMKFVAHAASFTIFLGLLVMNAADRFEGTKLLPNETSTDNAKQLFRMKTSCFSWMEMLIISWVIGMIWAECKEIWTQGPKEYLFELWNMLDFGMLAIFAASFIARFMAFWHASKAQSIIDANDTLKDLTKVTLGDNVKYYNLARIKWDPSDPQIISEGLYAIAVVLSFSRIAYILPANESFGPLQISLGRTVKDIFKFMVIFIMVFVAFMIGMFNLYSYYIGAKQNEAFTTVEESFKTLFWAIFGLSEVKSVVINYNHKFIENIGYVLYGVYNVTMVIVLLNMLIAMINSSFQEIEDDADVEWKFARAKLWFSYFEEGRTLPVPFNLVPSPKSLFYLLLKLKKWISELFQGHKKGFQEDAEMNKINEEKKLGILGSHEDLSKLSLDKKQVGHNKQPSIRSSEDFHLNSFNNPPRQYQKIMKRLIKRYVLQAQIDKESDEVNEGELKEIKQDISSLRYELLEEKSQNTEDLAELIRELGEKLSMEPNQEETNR
Assay: Evaluation of TRPC6 channel inhibitory activity (2), HEK293 cells with stably introduced human TRPC6, OAG stimulation, FLIPR tetra (Compound Nos. 1293 to 1405)
Assay type: cell-based
Details: HEK293 cells with stably introduced human TRPC6, OAG 50 μM/0.5% DMSO, read-out: Inhibitory activity (pIC50 class) (converted)
Method in brief: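 Calcium-dye-loaded HEK293 cells stably expressing human TRPC6 were pretreated with compound for 25 min, then stimulated with 50 μM OAG (0.5% DMSO) in Ca ringer buffer pH 7.2 with 2 mM CaCl2. Background-subtracted FLIPR calcium peaks were normalized to OAG (100%) and buffer (0%); pIC50 came from four-parameter logistic fit, binned as +/++/+++.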

Q: `COc1nc(-c2ccc(C#N)cc2Oc2cc(-c3ccccn3)nn2C)ncc1[C@H](O)CN` [compound 1328, 4-[5-[(1S)-2-amino-1-hydroxyethyl]-4-methoxypyrimidin-2-yl]-3-(2-methyl-5-pyridin-2-ylpyrazol-3-yl)oxybenzonitrile] was tested. Which IC50 did it give?
A: Its IC50 is 10 to 1000 nM.

Q: For `Cn1nc(C2CCOCC2)cc1Oc1cc(Cl)ccc1-c1ncc([C@H](O)CN)cn1` [compound 1388, (1S)-2-amino-1-[2-[4-chloro-2-[2-methyl-5-(oxan-4-yl)pyrazol-3-yl]oxyphenyl]pyrimidin-5-yl]ethanol], which IC50 is on record?
A: Its IC50 is 10 to 1000 nM.

Q: How did the IC50 turn out when `Cn1nc(C2CC2)cc1Oc1cc(Cl)cnc1-c1ccc([C@@H](F)CN)cn1` [compound 1370, (2R)-2-[6-[5-chloro-3-(5-cyclopropyl-2-methylpyrazol-3-yl)oxypyridin-2-yl]pyridin-3-yl]-2-fluoroethanamine] was run?
A: The IC50 was 10 to 1000 nM.

Q: Which IC50 does the source give for `Cc1nc(Oc2cc(Cl)ccc2-c2ncc([C@H](F)CN)cn2)cc(N2CCOCC2)n1` [compound 1375, (2S)-2-[2-[4-chloro-2-(2-methyl-6-morpholin-4-ylpyrimidin-4-yl)oxyphenyl]pyrimidin-5-yl]-2-fluoroethanamine] here?
A: Its IC50 is 10 to 1000 nM.

Q: `Cc1cc(Oc2cc(C#N)ccc2-c2ccc(CN)c(C)n2)cc(N2CCOCC2)n1` [compound 1304, 4-[5-(aminomethyl)-6-methylpyridin-2-yl]-3-(2-methyl-6-morpholin-4-ylpyridin-4-yl)oxybenzonitrile] was tested. Which IC50 did it give?
A: The IC50 was < 10 nM.

Q: For `Cn1nc(-c2ccccn2)cc1Oc1cc(C#N)ccc1-c1ccc([C@@H](F)CN)cn1` [compound 1301, 4-[5-[(1R)-2-amino-1-fluoroethyl]pyridin-2-yl]-3-(2-methyl-5-pyridin-2-ylpyrazol-3-yl)oxybenzonitrile], which IC50 is on record?
A: The IC50 was < 10 nM.

Q: `Cn1nc(C2CC2)cc1Oc1cc(F)ccc1-c1ncc([C@@H](O)CN)cn1` [compound 1384, (1R)-2-amino-1-[2-[2-(5-cyclopropyl-2-methylpyrazol-3-yl)oxy-4-fluorophenyl]pyrimidin-5-yl]ethanol] was tested. Which IC50 did it give?
A: The IC50 was 10 to 1000 nM.

Q: How did the IC50 turn out when `Cn1nc(-c2ccccn2)cc1Oc1cc(Cl)ccc1-c1ccc([C@H](F)CN)cn1` [compound 1338, (2S)-2-[6-[4-chloro-2-(2-methyl-5-pyridin-2-ylpyrazol-3-yl)oxyphenyl]pyridin-3-yl]-2-fluoroethanamine] was run?
A: Its IC50 is < 10 nM.

Q: Which IC50 does the source give for `C[C@@H](N)c1ccc(-c2ccc(Cl)cc2Oc2cc(-c3ccccn3)nn2C)nc1` [compound 1380, (1R)-1-[6-[4-chloro-2-(2-methyl-5-pyridin-2-ylpyrazol-3-yl)oxyphenyl]pyridin-3-yl]ethanamine] here?
A: The IC50 was < 10 nM.

Q: For `Cn1nc(-c2ccccn2)cc1Oc1cc(Cl)ccc1-c1ccc([C@@H](F)CN)cn1` [compound 1339, (2R)-2-[6-[4-chloro-2-(2-methyl-5-pyridin-2-ylpyrazol-3-yl)oxyphenyl]pyridin-3-yl]-2-fluoroethanamine], which IC50 is on record?
A: The IC50 was < 10 nM.

Q: For `Cn1nc(-c2ccccc2)nc1Oc1cc(Cl)ccc1-c1ncc(CCN)cn1` [compound 1365, 2-[2-[4-chloro-2-[(2-methyl-5-phenyl-1,2,4-triazol-3-yl)oxy]phenyl]pyrimidin-5-yl]ethanamine], which IC50 is on record?
A: Its IC50 is > 1000 nM.
